For test [1], the system named is P. falciparum. In words: In vitro parasite growth inhibition, SYBR Green I-based fluorescence assay for parasite nucleic acid. To be noted: Plasmodium falciparum, 72 h; 3 days culture; read-out: In vitro growth inhibitory IC50. It is filed as cell-based.
The test system of test [2] is P. falciparum. In words: In vitro parasite growth inhibition by combinations of two PSAC antagonists (isobologram).
Experimental: Parasite killing by identified PSAC antagonists was evaluated using a SYBR Green I-based fluorescence assay for parasite nucleic acid in 96-well format. […] Cultures were maintained for 3 days at 37° C. in 5% 02, 5% CO2. […] For each antagonist concentration, the mean of triplicate measurements was calculated after subtraction of background fluorescence from cultures killed by 20 μM chloroquine, a known antimalarial agent.
The solid line represents the line of additive killing.
The mark [3] stands for this setting: in combination with compound 11 (Comp. A).
Where [4] appears, read: in combination with compound 24 (Comp. A).
Where [5] appears, read: in combination with compound 26 (Comp. A).
Setting [6] is: in combination with compound 31 (Comp. A).

By IC50 is commonly meant the concentration at which inhibition is half-maximal.

Turning to `COc1ccc2cc3cc(C(=O)N(C)C4CCCCC4)oc3nc2c1` [Compound 25], the IC50 in the test with P. falciparum [1] worked out at 4 µM. For the same molecule, the “parasite killing by combination” value in the test on P. falciparum [2] (setting [3]), in the test with P. falciparum [2] (setting [4]), with P. falciparum [2] (setting [5]) and in the test with P. falciparum [2] (setting [6]) was “S” in each case. Take `COc1ccc(OCC(=O)Nc2ccc(-c3nn4c(C)nnc4s3)cc2)cc1` [Compound 16]: the half-maximal inhibitory concentration (IC50) in the test with P. falciparum [1] was 4.98 µM. The “parasite killing by combination” value in the test on P. falciparum [2] (setting [4]) and with P. falciparum [2] (in combination with compound 35 (Comp. A)) was “S” in each case. For `COc1ccc(-c2nc3c(=O)[nH]c4ccccc4c3s2)cc1` [Compound 32], in the test on P. falciparum [1], the IC50 amounted to 3 µM.

On to `CCCCCC(=O)Nc1cc(-c2nn3c(C)nnc3s2)ccc1C` [Compound 22], for which the IC50 with P. falciparum [1] came out at 21.5 µM. On the same count and under the same terms, the same measure for `COc1ccc(-c2nc3c(=O)n(C)c4ccccc4c3o2)cc1` [Compound 33]: above 20 µM; for `O=C1Nc2cc(C(=O)N3CCC(Cc4ccccc4)CC3)ccc2Sc2ccccc21` [Compound 10]: 3.01 µM. Regarding `CCc1nnc2sc(-c3ccc(NC(=O)c4ccc(N5CCCC5)c([N+](=O)[O-])c4)cc3)nn12` [Compound 17], the IC50 with P. falciparum [1] came to 39 µM. As for `O=C(COc1ccc2ccccc2c1)Nc1cccc(-c2nc3ncccc3o2)c1` [Compound 15], in the test with P. falciparum [1], the IC50 turned out to be 6 µM.

Turning to `Cc1ccc(C)c(N2CCN(C(=O)c3ccc4c(c3)NC(=O)c3ccccc3S4)CC2)c1` [Compound 5], the IC50 in the test with P. falciparum [1] was determined as 1.33 µM. As to `CCCCOc1ccc(C(=O)Nc2ccc(-c3nn4c(C)nnc4s3)cc2)cc1` [Compound 18], the IC50 in the test with P. falciparum [1] was determined as 2.14 µM. The “parasite killing by combination, isobologram (FIG. 3C)” value with P. falciparum [2] (in combination with compound 24 (component A antagonist), mixtures producing 50% parasite killing) is listed as “synergistic parasite killing”.

In the case of `Cc1cc(-c2nn3c(C)nnc3s2)ccc1NC(=O)C(C)C` [Compound 23], in the test on P. falciparum [1], the IC50 came to 36.7 µM.

`CCOc1ccc(C(=O)Nc2ccc(-c3nn4c(C)nnc4s3)cc2)cc1` [Compound 13]: in the test on P. falciparum [1], the 50% inhibitory concentration (IC50) came to 3.85 µM. Moreover, the “parasite killing by combination” value with P. falciparum [2] (setting [3]), in the test on P. falciparum [2] (setting [4]), in the test with P. falciparum [2] (setting [5]), in the test on P. falciparum [2] (setting [6]), in the test on P. falciparum [2] (in combination with compound 32 (Comp. A)) and in the test with P. falciparum [2] (in combination with compound 33 (Comp. A)) was “S” in each case. The “parasite killing by combination” value in the test with P. falciparum [2] (in combination with compound 34 (Comp. A)) is reported as “S”. As to `O=C(Nc1ccc(-c2noc(-c3cccs3)n2)cc1)c1cccnc1` [Compound 21], the IC50 in the test with P. falciparum [1] was determined as 10 µM. Further, the “parasite killing by combination” value with P. falciparum [2] (setting [4]) is “S”. As for `COc1cc(OC)nc(Sc2ccc(NC(=O)c3ccc(C(C)(C)C)cc3)cc2)n1` [Compound 36], the “parasite killing by combination” value with P. falciparum [2] (setting [4]) is “S”.

For the molecule `CCC(Cc1ccccc1)NC(=O)c1ccc2c(c1)NC(=O)c1ccccc1S2` (stereo not shown) [Compound 11], the IC50 in the test with P. falciparum [1] is 3 µM. `O=C1Nc2cc(C(=O)N3CCN(c4ccccc4)CC3)ccc2Sc2ccccc21` [Compound 3]: the IC50 in the test on P. falciparum [1] came out at 0.67 µM.

With `Cc1nnc2sc(-c3ccc(NC(=O)c4ccc(Br)o4)cc3)nn12` [Compound 19], in the test on P. falciparum [1], the IC50 was determined as 2.74 µM. In the case of `Cc1cc(-c2nn3c(C)nnc3s2)ccc1NC(=O)c1ccco1` [Compound 20], the IC50 in the test on P. falciparum [1] is 21.6 µM. For `O=C1Nc2cc(C(=O)N3CCC(N4CCCCC4)CC3)ccc2Sc2ccccc21` [Compound 9], the IC50 in the test on P. falciparum [1] was 6.9 µM. `CCCN(C(=O)c1cc2cc3ccc(C)cc3nc2o1)c1cccc(C)c1` [Compound 26]: in the test on P. falciparum [1], the IC50 was 6.9 µM. On the same count and under the same terms, then `CCCCCn1c(=O)c2nc(-c3ccc(OC)cc3)oc2c2ccccc21` [Compound 34], with 15 µM.

With `Cc1cccc(N2CCN(C(=O)c3ccc4c(c3)NC(=O)c3ccccc3S4)CC2)c1C` [Compound 2], the half-inhibitory concentration (IC50) with P. falciparum [1] was 1 µM.

For the origin of these results see patent publication US20230346797A1, “INHIBITORS OF THE PLASMODIAL SURFACE ANION CHANNEL AS ANTIMALARIALS” (The United States of America,as represented by the …, priority 2008, published 2023).
